Reference: the NIST ThermoML archive (doi:10.1016/j.tca.2008.12.007)
Several values for one entry are separate records, joined by “and”; a condition that tells them apart may be missing. Identical values can stand only once.

Assay: xn = mol fraction of the nth substance listed
Conditions: 101 kPa, Liquid, Vibrating tube method

C1CCCNCC1 [azacycloheptane] + O
mass density
Conditions | 283.15 K | 288.15 K | 293.15 K | 298.15 K | 303.15 K | 308.15 K | 313.15 K
x2 = 0.0199 | 891.47 kg/m3 | 887.05 kg/m3 | 882.62 kg/m3 | 878.18 kg/m3 | 873.74 kg/m3 | 869.29 kg/m3 | 864.83 kg/m3
x2 = 0.0395 | 892.56 kg/m3 | 888.13 kg/m3 | 883.7 kg/m3 | 879.25 kg/m3 | 874.8 kg/m3 | 870.34 kg/m3 | 865.87 kg/m3
x2 = 0.0821 | 895.27 kg/m3 | 890.84 kg/m3 | 886.39 kg/m3 | 881.94 kg/m3 | 877.47 kg/m3 | 872.99 kg/m3 | 868.49 kg/m3
x2 = 0.1198 | 897.59 kg/m3 | 893.16 kg/m3 | 888.7 kg/m3 | 884.23 kg/m3 | 879.75 kg/m3 | 875.26 kg/m3 | 870.75 kg/m3
x2 = 0.1594 | 900.05 kg/m3 | 895.61 kg/m3 | 891.15 kg/m3 | 886.67 kg/m3 | 882.19 kg/m3 | 877.68 kg/m3 | 873.16 kg/m3
x2 = 0.1994 | 902.85 kg/m3 | 898.4 kg/m3 | 893.94 kg/m3 | 889.46 kg/m3 | 884.96 kg/m3 | 880.45 kg/m3 | 875.92 kg/m3
x2 = 0.2498 | 906.32 kg/m3 | 901.88 kg/m3 | 897.41 kg/m3 | 892.92 kg/m3 | 888.42 kg/m3 | 883.9 kg/m3 | 879.35 kg/m3
x2 = 0.3 | 909.81 kg/m3 | 905.38 kg/m3 | 900.91 kg/m3 | 896.42 kg/m3 | 891.91 kg/m3 | 887.38 kg/m3 | –
x2 = 0.3499 | 913.73 kg/m3 | 909.3 kg/m3 | 904.84 kg/m3 | 900.36 kg/m3 | 895.85 kg/m3 | 891.32 kg/m3 | –
x2 = 0.4 | 917.67 kg/m3 | 913.25 kg/m3 | 908.79 kg/m3 | 904.32 kg/m3 | 899.81 kg/m3 | 895.28 kg/m3 | –
x2 = 0.4529 | 922.26 kg/m3 | 917.86 kg/m3 | 913.42 kg/m3 | 908.96 kg/m3 | 904.46 kg/m3 | 899.94 kg/m3 | –
x2 = 0.5008 | 926.61 kg/m3 | 922.24 kg/m3 | 917.83 kg/m3 | 913.38 kg/m3 | 908.91 kg/m3 | 904.4 kg/m3 | –
x2 = 0.5041 | 926.61 kg/m3 | 922.23 kg/m3 | 917.82 kg/m3 | 913.38 kg/m3 | 908.91 kg/m3 | 904.4 kg/m3 | –
x2 = 0.5508 | 931.05 kg/m3 | 926.72 kg/m3 | 922.34 kg/m3 | 917.93 kg/m3 | 913.48 kg/m3 | 909 kg/m3 | –
x2 = 0.5992 | 935.7 kg/m3 | 931.42 kg/m3 | 927.09 kg/m3 | 922.72 kg/m3 | 918.31 kg/m3 | 913.86 kg/m3 | –
x2 = 0.65 | 941.01 kg/m3 | 936.79 kg/m3 | 932.53 kg/m3 | 928.22 kg/m3 | 923.88 kg/m3 | 919.49 kg/m3 | –
x2 = 0.699 | 946.42 kg/m3 | 942.29 kg/m3 | 938.12 kg/m3 | 933.9 kg/m3 | 929.63 kg/m3 | 925.32 kg/m3 | –
x2 = 0.7496 | 952.51 kg/m3 | 948.5 kg/m3 | 944.46 kg/m3 | 940.36 kg/m3 | 936.22 kg/m3 | 932.02 kg/m3 | –
x2 = 0.7994 | 959.33 kg/m3 | 955.51 kg/m3 | 951.64 kg/m3 | 947.71 kg/m3 | 943.73 kg/m3 | 939.69 kg/m3 | –
x2 = 0.8398 | 965.5 kg/m3 | 961.88 kg/m3 | 958.2 kg/m3 | 954.47 kg/m3 | 950.68 kg/m3 | 946.83 kg/m3 | –
x2 = 0.8799 | 972.62 kg/m3 | 969.3 kg/m3 | 965.9 kg/m3 | 962.45 kg/m3 | 958.91 kg/m3 | 955.31 kg/m3 | –
x2 = 0.92 | 981.18 kg/m3 | 978.28 kg/m3 | 975.3 kg/m3 | 972.24 kg/m3 | 969.1 kg/m3 | 965.86 kg/m3 | –
x2 = 0.9597 | – | – | – | 984.66 kg/m3 and 984.68 kg/m3 | – | – | –
x2 = 0.9599 | 991.53 kg/m3 | 989.32 kg/m3 | 986.99 kg/m3 | 984.54 kg/m3 | 981.98 kg/m3 | 979.29 kg/m3 | –
x2 = 0.96 | 991.6 kg/m3 | 989.39 kg/m3 | 987.06 kg/m3 | 984.61 kg/m3 | 982.04 kg/m3 | 979.35 kg/m3 | –
x2 = 0.9699 | 994.44 kg/m3 | 992.49 kg/m3 | 990.4 kg/m3 | 988.16 kg/m3 | 985.8 kg/m3 | 983.3 kg/m3 | –
x2 = 0.9798 | – | – | – | 991.9 kg/m3 | – | – | –
x2 = 0.98 | 997.1 kg/m3 | 995.56 kg/m3 | 993.8 kg/m3 | 991.86 kg/m3 | 989.75 kg/m3 | 987.48 kg/m3 | –
x2 = 0.9851 | – | – | – | 993.77 kg/m3 | – | – | –
x2 = 0.9882 | – | – | – | 994.59 kg/m3 | – | – | –
x2 = 0.9899 | – | – | – | 994.98 kg/m3 | – | – | –
x2 = 0.9921 | – | – | – | 995.43 kg/m3 | – | – | –
x2 = 0.994 | – | – | – | 995.81 kg/m3 | – | – | –
